Assay results from ChEMBL document CHEMBL4325871 (Eur J Med Chem, 2019).

Tests used:
[1] = molecular target: Myosin-IIIa (Homo sapiens) (UniProt Q8NEV4); assay: Inhibition of human MYO3A assessed as residual activity at 1 uM using MBP as substrate by [gamma-33P]-ATP assay relative to control
[2] = molecular target: Dual specificity mitogen-activated protein kinase kinase 7 (Homo sapiens) (UniProt O14733); assay: Inhibition of human MKK7 assessed as residual activity at 1 uM using JNK as substrate by [gamma-33P]-ATP assay relative to control
[3] = molecular target: Casein kinase I isoform epsilon (Homo sapiens) (UniProt P49674); assay: Inhibition of human CK1E assessed as residual activity at 1 uM using KRRRAL[pS]VASLPGL as substrate by [gamma-33P]-ATP assay relative to control
Sequence of Casein kinase I isoform epsilon (Homo sapiens) (P49674 whole entry, looked up, canonical isoform): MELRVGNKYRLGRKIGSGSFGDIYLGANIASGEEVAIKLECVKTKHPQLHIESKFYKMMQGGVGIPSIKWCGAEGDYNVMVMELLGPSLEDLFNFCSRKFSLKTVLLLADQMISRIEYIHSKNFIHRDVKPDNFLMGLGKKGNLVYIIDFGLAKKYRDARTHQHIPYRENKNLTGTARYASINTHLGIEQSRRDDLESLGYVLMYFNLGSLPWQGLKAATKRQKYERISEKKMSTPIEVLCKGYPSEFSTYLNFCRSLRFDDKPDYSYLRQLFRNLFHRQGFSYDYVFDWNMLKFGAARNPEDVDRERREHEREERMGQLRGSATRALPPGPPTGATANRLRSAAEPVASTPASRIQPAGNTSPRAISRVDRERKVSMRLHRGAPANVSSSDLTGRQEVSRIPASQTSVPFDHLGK

[4] = molecular target: Citron Rho-interacting kinase (Homo sapiens) (UniProt O14578); assay: Inhibition of human STK21 assessed as residual activity at 1 uM using MBP as substrate by [gamma-33P]-ATP assay relative to control
[5] = molecular target: Protein kinase C gamma type (Homo sapiens) (UniProt P05129); assay: Inhibition of human PKCgamma assessed as residual activity at 1 uM using ERMRPRKRQGSVRRRV as substrate by [gamma-33P]-ATP assay relative to control
[6] = molecular target: MAP kinase-activated protein kinase 5 (Homo sapiens) (UniProt Q8IW41); assay: Inhibition of human MAPKAPK5 assessed as residual activity at 1 uM using KKLNRTLSVA as substrate by [gamma-33P]-ATP assay relative to control
Sequence of MAP kinase-activated protein kinase 5 (Homo sapiens) (Q8IW41 whole entry): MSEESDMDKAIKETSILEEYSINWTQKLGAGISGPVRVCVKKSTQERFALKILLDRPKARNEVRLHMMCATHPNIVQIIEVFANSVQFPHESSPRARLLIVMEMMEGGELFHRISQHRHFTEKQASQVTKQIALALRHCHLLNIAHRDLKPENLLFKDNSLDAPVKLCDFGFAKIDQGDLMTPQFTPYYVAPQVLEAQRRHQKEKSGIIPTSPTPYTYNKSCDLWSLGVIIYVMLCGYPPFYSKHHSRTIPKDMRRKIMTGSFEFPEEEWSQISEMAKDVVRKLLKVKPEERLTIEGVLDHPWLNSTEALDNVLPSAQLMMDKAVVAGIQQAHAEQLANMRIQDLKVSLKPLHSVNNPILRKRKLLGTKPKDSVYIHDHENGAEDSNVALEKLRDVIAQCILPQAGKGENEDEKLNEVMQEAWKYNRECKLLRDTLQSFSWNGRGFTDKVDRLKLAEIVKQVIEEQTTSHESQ

[7] = molecular target: Misshapen-like kinase 1 (Homo sapiens) (UniProt Q8N4C8); assay: Inhibition of human MINK1 assessed as residual activity at 1 uM using MBP as substrate by [gamma-33P]-ATP assay relative to control
[8] = molecular target: Activated CDC42 kinase 1 (Homo sapiens) (UniProt Q07912); assay: Inhibition of human ACK1 assessed as residual activity at 1 uM using EAIYAAPFAKKK as substrate by [gamma-33P]-ATP assay relative to control
Sequence of Activated CDC42 kinase 1 (Homo sapiens) (Q07912 whole entry, looked up): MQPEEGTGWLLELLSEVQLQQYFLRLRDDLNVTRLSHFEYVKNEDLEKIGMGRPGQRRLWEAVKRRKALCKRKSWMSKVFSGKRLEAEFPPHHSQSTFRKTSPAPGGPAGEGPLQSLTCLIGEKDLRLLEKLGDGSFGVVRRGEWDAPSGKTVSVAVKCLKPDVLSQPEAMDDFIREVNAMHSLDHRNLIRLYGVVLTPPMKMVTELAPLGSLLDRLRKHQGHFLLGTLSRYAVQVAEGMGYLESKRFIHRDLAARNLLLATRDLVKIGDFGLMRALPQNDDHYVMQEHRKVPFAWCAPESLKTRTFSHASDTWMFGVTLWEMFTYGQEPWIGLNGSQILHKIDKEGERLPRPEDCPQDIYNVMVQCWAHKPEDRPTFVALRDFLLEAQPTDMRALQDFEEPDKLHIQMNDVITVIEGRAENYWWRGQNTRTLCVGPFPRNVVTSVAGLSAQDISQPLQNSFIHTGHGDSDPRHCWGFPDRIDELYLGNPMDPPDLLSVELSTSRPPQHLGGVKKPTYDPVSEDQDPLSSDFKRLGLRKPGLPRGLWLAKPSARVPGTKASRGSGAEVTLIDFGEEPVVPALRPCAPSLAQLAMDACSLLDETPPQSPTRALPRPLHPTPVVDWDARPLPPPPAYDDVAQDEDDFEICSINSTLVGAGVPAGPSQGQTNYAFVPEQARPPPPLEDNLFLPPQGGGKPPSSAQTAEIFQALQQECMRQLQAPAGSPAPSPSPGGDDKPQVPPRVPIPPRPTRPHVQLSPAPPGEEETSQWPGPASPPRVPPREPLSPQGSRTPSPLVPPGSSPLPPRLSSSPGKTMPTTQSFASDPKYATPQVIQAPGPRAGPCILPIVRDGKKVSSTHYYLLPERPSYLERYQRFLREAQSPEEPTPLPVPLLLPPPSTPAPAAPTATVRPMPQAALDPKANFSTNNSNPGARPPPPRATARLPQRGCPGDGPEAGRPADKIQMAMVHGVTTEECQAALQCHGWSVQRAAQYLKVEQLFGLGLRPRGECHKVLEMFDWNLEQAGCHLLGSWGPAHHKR

[9] = molecular target: Ephrin type-A receptor 6 (Homo sapiens) (UniProt Q9UF33); assay: Inhibition of human EPHA6 assessed as residual activity at 1 uM using poly[Glu:Tyr] (4:1) as substrate by [gamma-33P]-ATP assay relative to control
[10] = molecular target: Death-associated protein kinase 1 (Homo sapiens) (UniProt P53355); assay: Inhibition of human DAPK1 assessed as residual activity at 1 uM using KKLNRTLSFAEPG as substrate by [gamma-33P]-ATP assay relative to control
[11] = molecular target: Serine/threonine-protein kinase N3 (Homo sapiens) (UniProt Q6P5Z2); assay: Inhibition of human PKN3 assessed as residual activity at 1 uM using KKLNRTLSVA as substrate by [gamma-33P]-ATP assay relative to control
Sequence of Serine/threonine-protein kinase N3 (Homo sapiens) (Q6P5Z2 whole entry, looked up): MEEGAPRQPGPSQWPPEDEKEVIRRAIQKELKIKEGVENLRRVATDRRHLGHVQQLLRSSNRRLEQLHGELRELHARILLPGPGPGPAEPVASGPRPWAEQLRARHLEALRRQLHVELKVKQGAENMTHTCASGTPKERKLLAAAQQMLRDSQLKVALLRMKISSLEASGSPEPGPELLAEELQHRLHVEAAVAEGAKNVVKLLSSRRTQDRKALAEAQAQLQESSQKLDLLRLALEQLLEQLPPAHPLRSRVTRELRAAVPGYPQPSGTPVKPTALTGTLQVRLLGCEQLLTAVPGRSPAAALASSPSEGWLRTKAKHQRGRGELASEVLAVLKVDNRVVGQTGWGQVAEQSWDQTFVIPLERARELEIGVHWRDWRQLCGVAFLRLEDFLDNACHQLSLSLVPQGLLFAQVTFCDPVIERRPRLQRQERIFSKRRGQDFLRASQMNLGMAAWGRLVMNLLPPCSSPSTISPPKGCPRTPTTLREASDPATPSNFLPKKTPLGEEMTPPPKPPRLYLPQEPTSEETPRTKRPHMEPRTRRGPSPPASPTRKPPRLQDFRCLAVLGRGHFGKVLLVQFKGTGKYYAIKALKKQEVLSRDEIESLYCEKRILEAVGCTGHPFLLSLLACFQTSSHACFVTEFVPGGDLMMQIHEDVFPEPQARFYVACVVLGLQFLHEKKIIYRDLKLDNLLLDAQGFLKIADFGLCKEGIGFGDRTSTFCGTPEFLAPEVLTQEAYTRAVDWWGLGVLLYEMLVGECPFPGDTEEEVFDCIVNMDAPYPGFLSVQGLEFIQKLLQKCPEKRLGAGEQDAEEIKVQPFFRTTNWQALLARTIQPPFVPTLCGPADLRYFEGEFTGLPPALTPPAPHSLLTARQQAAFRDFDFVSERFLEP

[12] = molecular target: CDK2/Cyclin A2 (Homo sapiens) (UniProt P24941+P20248); assay: Inhibition of human CDK2/cyclin-A assessed as residual activity at 1 uM using histone H1 as substrate by [gamma-33P]-ATP assay relative to control; format: protein-complex assay
[13] = molecular target: Mitogen-activated protein kinase 8 (Homo sapiens) (UniProt P45983); assay: Inhibition of human JNK1 assessed as residual activity at 1 uM using ATF2 as substrate by [gamma-33P]-ATP assay relative to control
Sequence of Mitogen-activated protein kinase 8 (Homo sapiens) (P45983 whole entry): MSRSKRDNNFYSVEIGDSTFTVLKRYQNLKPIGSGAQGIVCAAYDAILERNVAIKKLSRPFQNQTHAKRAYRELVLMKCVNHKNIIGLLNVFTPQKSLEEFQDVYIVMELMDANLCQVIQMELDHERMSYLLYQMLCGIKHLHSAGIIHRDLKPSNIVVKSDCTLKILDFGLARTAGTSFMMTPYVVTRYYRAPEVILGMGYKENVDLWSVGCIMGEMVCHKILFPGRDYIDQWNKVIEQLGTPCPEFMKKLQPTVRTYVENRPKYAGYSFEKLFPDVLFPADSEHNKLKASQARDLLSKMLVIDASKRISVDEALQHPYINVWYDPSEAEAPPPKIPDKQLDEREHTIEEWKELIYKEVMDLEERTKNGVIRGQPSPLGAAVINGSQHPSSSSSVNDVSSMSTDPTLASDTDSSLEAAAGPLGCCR

[14] = molecular target: MAP/microtubule affinity-regulating kinase 3 (Homo sapiens) (UniProt P27448); assay: Inhibition of human MARK3 assessed as residual activity at 1 uM using KKKVSRSGLYRSPSMPENLNRPR as substrate by [gamma-33P]-ATP assay relative to control
[15] = molecular target: Serine/threonine-protein kinase ULK2 (Homo sapiens) (UniProt Q8IYT8); assay: Inhibition of human ULK2 assessed as residual activity at 1 uM using MBP as substrate by [gamma-33P]-ATP assay relative to control
Sequence of Serine/threonine-protein kinase ULK2 (Homo sapiens) (Q8IYT8 whole entry): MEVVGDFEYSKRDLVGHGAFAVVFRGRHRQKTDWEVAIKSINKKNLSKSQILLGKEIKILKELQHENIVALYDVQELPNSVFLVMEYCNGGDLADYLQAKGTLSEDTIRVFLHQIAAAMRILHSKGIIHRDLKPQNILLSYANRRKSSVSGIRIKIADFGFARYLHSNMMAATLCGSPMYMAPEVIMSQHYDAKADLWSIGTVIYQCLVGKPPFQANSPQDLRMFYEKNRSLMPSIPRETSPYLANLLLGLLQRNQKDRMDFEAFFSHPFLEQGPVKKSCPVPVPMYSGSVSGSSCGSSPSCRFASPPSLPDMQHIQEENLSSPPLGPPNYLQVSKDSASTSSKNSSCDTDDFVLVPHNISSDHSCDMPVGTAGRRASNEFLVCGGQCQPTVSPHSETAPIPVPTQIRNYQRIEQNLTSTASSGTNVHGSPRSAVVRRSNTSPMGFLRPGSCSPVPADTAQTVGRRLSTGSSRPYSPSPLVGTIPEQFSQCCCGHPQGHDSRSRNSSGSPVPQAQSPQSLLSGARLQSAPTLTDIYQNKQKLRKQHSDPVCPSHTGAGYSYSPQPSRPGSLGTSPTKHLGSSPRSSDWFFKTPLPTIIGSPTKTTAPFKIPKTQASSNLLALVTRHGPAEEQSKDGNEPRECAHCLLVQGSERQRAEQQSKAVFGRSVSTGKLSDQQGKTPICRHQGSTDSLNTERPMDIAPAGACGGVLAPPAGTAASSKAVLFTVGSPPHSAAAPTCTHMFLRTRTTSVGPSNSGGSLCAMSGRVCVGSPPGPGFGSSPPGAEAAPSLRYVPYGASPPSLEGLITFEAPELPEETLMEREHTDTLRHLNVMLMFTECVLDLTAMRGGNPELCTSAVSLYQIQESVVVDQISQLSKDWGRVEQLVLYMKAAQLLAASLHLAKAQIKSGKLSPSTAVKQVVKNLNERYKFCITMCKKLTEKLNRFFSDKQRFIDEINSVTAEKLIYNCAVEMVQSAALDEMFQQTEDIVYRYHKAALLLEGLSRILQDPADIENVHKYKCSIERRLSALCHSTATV

[16] = molecular target: CDK7/Cyclin H/MNAT1 (Homo sapiens) (UniProt P51946+P50613+P51948); assay: Inhibition of human CDK7/cyclin-H/MNAT1 assessed as residual activity at 1 uM using MBP as substrate by [gamma-33P]-ATP assay relative to control; format: protein-complex assay

SMILES | Activity [1] [%] | Activity [2] [%] | Activity [3] [%] | Activity [4] [%] | Activity [5] [%] | Activity [6] [%] | Activity [7] [%] | Activity [8] [%] | Activity [9] [%] | Activity [10] [%] | Activity [11] [%] | Activity [12] [%] | Activity [13] [%] | Activity [14] [%] | Activity [15] [%] | Activity [16] [%]
C(=C\c1ccccc1)/C[N+]12CN3CN(CN(C3)C1)C2 | 113 to 122 | 96.4 to 98.9 | 90.1 to 93.2 | 92.4 to 95.5 | 94.5 to 96.3 | 93.2 to 94.5 | – | – | – | – | – | – | – | – | – | –
ClC/C=C/C[N+]12CN3CN(CN(C3)C1)C2 | – | – | – | – | – | – | 91.9 to 94.8 | 90.6 to 94.8 | 93.1 to 94 | 119 to 135 | 92.3 to 92.9 | 97.3 to 97.8 | 96 to 96.5 | 148 to 153 | 93.7 to 95.4 | 97.4 to 97.9
